How the values were obtained:
Neuro2a cells = assay: Aβ production by Neuro2a cells, ELISA of culture medium; type: cell-based, murine; conditions: 24 hours treatment, vs control
Method: Neuro2a is a murine neuroblastoma cell line that is known to produce amyloid peptides Aβ1-40 and Aβ1-42 in amounts measurable by ELISA assays. These forms of Aβ have been correlated with the pathology in AD brain and Aβ1-42 in particular is postulated to have the ability to block a7 nicotinic receptors and to produce direct neurotoxic effects. Neuro2a cells were treated for 24 hours with ST101 added to the tissue culture medium. Tissue culture medium was collected and analyzed by ELISA for the presence of Aβ.

APP [1] = assay: Western blot of APP and C-terminal fragments in 3xTg-AD mouse brain; type: in vivo; conditions: 5 mg/kg/day
Method: To attempt to determine at what part in the Aβ processing/release pathway ST101 may be active, a series of Western blot analyses of brain extracts from the same mice were conducted. These Westerns blots examined intact APP as well as products of its post-translational processing and subsequent degradation.
FIG. 4 is a Western blot that depicts APP C-terminal fragments detected by antibody CT20 in the brains of ST101-treated (S) 3xTg-AD mice, relative to untreated (C) 3xTg mice-AD.
FIG. 5 is a Western blot that depicts APP and degradation fragments detected by antibody CT20 in the brains of ST101-treated (S) 3xTg-AD mice, relative to untreated (C) 3xTg-AD mice. “CT20” stands for full length APP species, and “Actin” stands for anti-beta-actin antibody as a protein loading control.
FIGS. 10A and 10B are Western blots that depict APP carboxy-terminal fragments detected by antibody CT20 in the brains of ST101-treated (T in FIG. 10A, S in FIG. 10B) 3xTg-AD mice, relative to untreated (C) 3xTg-AD mice. FIG. 10B is from a separate experiment that used the same brain extract used in the experiment for FIG. 10A. Animals were approximately 14.5 months old at sacrifice after 2.5 months of treatment with ST101 at 5 mg/kg/day in drinking water. * denotes a control animal with low levels of CTFs.
FIGS. 10C and 10D are Western blots that depict APP carboxy-terminal fragments detected by an APP C-terminal antibody (Eptitomics #: 15654-1) in the brains of ST101-treated (S) 3xTg-AD mice, relative to untreated (C) 3xTg-AD mice. FIG. 10D is a lighter exposure of the Western blot in FIG. 10C. Animals were approximately 14.5 months old at sacrifice after 2.5 months of treatment with ST101 at 5 mg/kg/day in drinking water.
Brain extracts from 12-month-old 3xTg-AD mice that had been treated with ST101 (S) at 5/mg/kg/day in drinking water over 2 months were analyzed in Western blots using a C-terminal APP antibody (CT-20 Calbiochem).

α-tubulin = assay: Western blot of α-tubulin and acetylated α-tubulin in 3xTg-AD mouse brain; type: in vivo; conditions: 3xTg-AD mice 12 months old, 5 mg/kg/day, 2 months
Description: The overexposed band near the bottom of the figure represents α-tubulin. Above this band a ladder of immuno-reactive bands was detected by the antibody.

[2] = system: LC3, Beclin 1, LAMP2A, cathepsin D; assay: Western blots of autophagy and lysosomal degradation mediators in 3xTg-AD mouse brain; type: in vivo; conditions: 3xTg-AD mice 12 months old, 5 mg/kg/day, 2 months
Method: The concentrations of several proteins involved in these pathways, specifically LC3, Beclin 1 (macroautophagy), LAMP2A (chaperone mediated autophagy), and cathepsin D (lysosomal protease) were measured in Western blots from 3xTg-AD mouse brains (FIG. 18, extracts from the same animals used in Examples 15-17.

APP [3] = assay: Western blot of APP fragments in cynomolgus monkey hippocampus, 9-month study; type: in vivo; conditions: male cynomolgus monkeys, 9 months oral
Method: (§1) Male cynomolgus monkeys were treated for 9 months with 0, 10, 30 or 100 mg/kg/day ST101 with once daily oral drug administration. Hippocampal brain samples were analyzed in Western blots and ELISAs for APP fragments and Aβ. […] Reductions in a ˜55-kDa fragment were also seen with treatment in these groups. Black outlines depict image level enhancement in Adobe Photoshop CS4, to better visualize weak signals. […] However, long exposures reveal the presence of the 17-kDa APP fragment only in treated monkeys (antibody CT20, Calbiochem). This fragment was not detected in either the 30 or 10 mg/kg/day ST101 groups. Error bars indicate SEM (standard error of the mean) and * indicates statistical significance versus control (p<0.05). (S: ST101-treated animals, versus C: control animals).

BACE = assay: Western blot of BACE in cynomolgus monkey hippocampus; type: in vivo; conditions: male cynomolgus monkeys, 9 months oral, 100 mg/kg/day
Method: as §1

ADAM10 = assay: Western blot of ADAM10 in cynomolgus monkey hippocampus; type: in vivo; conditions: male cynomolgus monkeys, 9 months oral, 100 mg/kg/day
Method: as §1

ubiquitylated proteins = assay: Anti-ubiquitin Western blot of C57/B6 wildtype mouse brain; type: in vivo; conditions: C57/B6 wildtype mice, 5 mg/kg/day in drinking water, 2 months
Method: Brain extracts from 2 month-old C57/B6 wildtype mice that had been treated with ST101 at 5/mg/kg/day in drinking water over 2 months were analyzed in Western blots using an anti-ubiquitin antibody (Dako no. Z0448).

[4] = 3xTg-AD mice ~12 months old, 2 months, antibody CT20

## O=C1N=C2C=CC=CN2C12Cc1ccccc1C2 [ST101, spiro(imidazo[1,2-a]pyridin-2(3H)-one-3,2′-indan)]
Neuro2a cells
  Aβ1-40 concentration in cell culture medium: without major effects
  Aβ1-42 concentration in cell culture medium: significantly reduced
APP [1]; 3xTg-AD mice 12 months old, 2 months, antibody CT-20
  AICD fragment (APP intracellular domain): visible in brain extracts from ST101 treated mice (S) but not in control mice (C)
APP [1]; [4]
  C83 C-terminal APP fragment: substantial decrease
  C99 C-terminal APP fragment: substantial decrease
  full-length APP species, band shift: slightly lowered molecular weight
  major APP degradation intermediate (~50 kDa): disappearance or significant reduction
  novel C-terminal APP fragment of about 17 kDa: appearance
APP [1]; 3xTg-AD mice ~14.5 months old, 2.5 months
  17 kDa APP fragment: lack of detection
APP [1]; 3xTg-AD mice ~14.5 months old, 2.5 months, Epitomics C-terminal APP antibody
  C99 fragment: reduction
APP [1]; 3xTg-AD mice ~14.5 months old, 2.5 months, antibody CT20
  APP CTFs: significant effect of reduction
APP [1]; 3xTg-AD mice ~14.5 months old, 2.5 months, compared with 12-month old mice
  C83 fragment: not reduced to the same degree
α-tubulin; acetylated α-tubulin antibody
  tubulin degradation products: reduced
α-tubulin; α-tubulin antibody
  high molecular weight ladder of α-tubulin immuno-reactive bands (presumably ubiquitylated tubulin): either absent or significantly reduced
[2]
  Beclin 1 concentration: did not reveal any obvious differences
  LAMP2A concentration: did not reveal any obvious differences
  LC3 concentration: did not reveal any obvious differences
  cathepsin D concentration: did not reveal any obvious differences
APP [3]; 10 mg/kg/day
  C83 APP fragment: no differences
  C99 APP fragment: no differences
APP [3]; 10 mg/kg/day, antibody CT20
  17-kDa APP fragment: not detected
APP [3]; 30 mg/kg/day
  C83 APP fragment: reductions
  C99 APP fragment: reductions
  ~55-kDa APP fragment: Reductions
APP [3]; 30 mg/kg/day, antibody CT20
  17-kDa APP fragment: not detected
APP [3]; 100 mg/kg/day
  C83 APP fragment: reductions
  C99 APP fragment: reductions
  ~55-kDa APP fragment: Reductions
APP [3]; 100 mg/kg/day, antibody CT20, long exposures
  17-kDa APP fragment: presence
BACE
  BACE level: no differences
ADAM10
  ADAM10 level: no differences
Ubiquitylated proteins
  ubiquitylated proteins: modest reduction
